Assay [1] concerns the target T1, Human inducible NOS (hiNOS) (Homo sapiens, UniProt P35228).
T1 construct: made in house; host or cells: Sf9 insect cells, baculovirus vector
Kind of assay: Citrulline assay for nitric oxide synthase, hiNOS. It is filed as biochemical. As to conditions: averages across all experiments and all lots; 30 μM L-arginine.
Method: (§3) Citrulline Assay for Nitric Oxide Synthase
(§4) To measure NOS activity, 10 μL of enzyme is added to 40 μL of 50 mM Tris (pH 7.6) in the presence or absence of test compounds and the reaction initiated by the addition of 50 μL of a reaction mixture containing 50 mM Tris (pH 7.6), 2.0 mg/mL bovine serum albumin, 2.0 mM DTT, 4.0 mM CaCl2, 20 μM FAD, 100 μM tetrahydrobiopterin, 0.4 mM NADPH and 60 μL-arginine containing 0.9 μCi of L-[2,3-^3H]-arginine. The final concentration of L-arginine in the assay is 30 μM. For hecNOS or hncNOS, calmodulin is included at a final concentration of 40-100 nM. Following incubation at 37° C. for 15 minutes, the reaction is terminated by addition of 400 μL of a suspension (1 part resin, 3 parts buffer) of Dowex 50W X-8 cation exchange resin in a stop buffer containing 10 mM EGTA, 100 mM HEPES, pH 5.5 and 1 mM L-citrulline. After mixing the resin is allowed to settle and L-[2,3-^3H]-Citrulline formation is determined by counting aliquots of the supernatant with a liquid scintillation counter.

Assay [2] deals with T2, human endothelial constitutive NOS (hecNOS) (Homo sapiens, UniProt P29474).
T2 construct: made in house; host or cells: Sf9 insect cells, baculovirus vector
T2 sequence (P29474 2-1203): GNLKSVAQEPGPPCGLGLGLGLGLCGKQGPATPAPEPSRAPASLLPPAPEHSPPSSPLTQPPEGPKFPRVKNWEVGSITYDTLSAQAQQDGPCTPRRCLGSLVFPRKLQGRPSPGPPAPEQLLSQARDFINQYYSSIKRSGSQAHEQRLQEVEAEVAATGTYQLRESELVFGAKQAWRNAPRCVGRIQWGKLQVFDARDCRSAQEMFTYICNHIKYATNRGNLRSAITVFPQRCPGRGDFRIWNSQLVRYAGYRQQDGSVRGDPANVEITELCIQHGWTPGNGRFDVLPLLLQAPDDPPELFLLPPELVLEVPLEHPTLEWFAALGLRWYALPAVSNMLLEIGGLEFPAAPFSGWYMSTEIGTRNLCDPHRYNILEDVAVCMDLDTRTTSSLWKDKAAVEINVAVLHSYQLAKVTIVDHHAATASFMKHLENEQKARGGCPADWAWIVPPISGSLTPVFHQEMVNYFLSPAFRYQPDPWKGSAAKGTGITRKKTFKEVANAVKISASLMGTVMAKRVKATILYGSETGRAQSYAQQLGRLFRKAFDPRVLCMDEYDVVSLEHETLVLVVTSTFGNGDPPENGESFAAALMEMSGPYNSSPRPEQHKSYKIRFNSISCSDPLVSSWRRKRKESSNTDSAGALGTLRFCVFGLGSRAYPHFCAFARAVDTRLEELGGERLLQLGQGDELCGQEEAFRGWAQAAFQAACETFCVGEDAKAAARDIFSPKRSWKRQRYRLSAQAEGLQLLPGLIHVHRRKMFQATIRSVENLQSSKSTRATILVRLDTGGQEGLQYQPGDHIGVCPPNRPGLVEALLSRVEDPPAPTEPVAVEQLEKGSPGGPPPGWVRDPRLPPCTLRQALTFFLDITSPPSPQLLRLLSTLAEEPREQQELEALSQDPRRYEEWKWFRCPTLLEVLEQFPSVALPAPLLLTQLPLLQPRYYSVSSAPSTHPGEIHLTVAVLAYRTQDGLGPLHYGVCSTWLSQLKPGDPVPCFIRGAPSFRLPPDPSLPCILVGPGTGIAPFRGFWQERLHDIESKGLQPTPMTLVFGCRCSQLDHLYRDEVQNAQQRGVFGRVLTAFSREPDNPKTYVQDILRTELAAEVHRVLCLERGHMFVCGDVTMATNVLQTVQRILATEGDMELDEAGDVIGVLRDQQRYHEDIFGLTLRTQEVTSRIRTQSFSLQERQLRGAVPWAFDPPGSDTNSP
Kind of assay: Citrulline assay for nitric oxide synthase, hecNOS. It is filed as biochemical. As to conditions: averages across all experiments and all lots; 30 μM L-arginine.
Method: as §3, §4

Assay [3] deals with T3, human neuronal constitutive NOS (hncNOS) (Homo sapiens, UniProt P29475).
T3 construct: made in house; host or cells: Sf9 insect cells, baculovirus vector
T3 sequence (P29475 whole entry): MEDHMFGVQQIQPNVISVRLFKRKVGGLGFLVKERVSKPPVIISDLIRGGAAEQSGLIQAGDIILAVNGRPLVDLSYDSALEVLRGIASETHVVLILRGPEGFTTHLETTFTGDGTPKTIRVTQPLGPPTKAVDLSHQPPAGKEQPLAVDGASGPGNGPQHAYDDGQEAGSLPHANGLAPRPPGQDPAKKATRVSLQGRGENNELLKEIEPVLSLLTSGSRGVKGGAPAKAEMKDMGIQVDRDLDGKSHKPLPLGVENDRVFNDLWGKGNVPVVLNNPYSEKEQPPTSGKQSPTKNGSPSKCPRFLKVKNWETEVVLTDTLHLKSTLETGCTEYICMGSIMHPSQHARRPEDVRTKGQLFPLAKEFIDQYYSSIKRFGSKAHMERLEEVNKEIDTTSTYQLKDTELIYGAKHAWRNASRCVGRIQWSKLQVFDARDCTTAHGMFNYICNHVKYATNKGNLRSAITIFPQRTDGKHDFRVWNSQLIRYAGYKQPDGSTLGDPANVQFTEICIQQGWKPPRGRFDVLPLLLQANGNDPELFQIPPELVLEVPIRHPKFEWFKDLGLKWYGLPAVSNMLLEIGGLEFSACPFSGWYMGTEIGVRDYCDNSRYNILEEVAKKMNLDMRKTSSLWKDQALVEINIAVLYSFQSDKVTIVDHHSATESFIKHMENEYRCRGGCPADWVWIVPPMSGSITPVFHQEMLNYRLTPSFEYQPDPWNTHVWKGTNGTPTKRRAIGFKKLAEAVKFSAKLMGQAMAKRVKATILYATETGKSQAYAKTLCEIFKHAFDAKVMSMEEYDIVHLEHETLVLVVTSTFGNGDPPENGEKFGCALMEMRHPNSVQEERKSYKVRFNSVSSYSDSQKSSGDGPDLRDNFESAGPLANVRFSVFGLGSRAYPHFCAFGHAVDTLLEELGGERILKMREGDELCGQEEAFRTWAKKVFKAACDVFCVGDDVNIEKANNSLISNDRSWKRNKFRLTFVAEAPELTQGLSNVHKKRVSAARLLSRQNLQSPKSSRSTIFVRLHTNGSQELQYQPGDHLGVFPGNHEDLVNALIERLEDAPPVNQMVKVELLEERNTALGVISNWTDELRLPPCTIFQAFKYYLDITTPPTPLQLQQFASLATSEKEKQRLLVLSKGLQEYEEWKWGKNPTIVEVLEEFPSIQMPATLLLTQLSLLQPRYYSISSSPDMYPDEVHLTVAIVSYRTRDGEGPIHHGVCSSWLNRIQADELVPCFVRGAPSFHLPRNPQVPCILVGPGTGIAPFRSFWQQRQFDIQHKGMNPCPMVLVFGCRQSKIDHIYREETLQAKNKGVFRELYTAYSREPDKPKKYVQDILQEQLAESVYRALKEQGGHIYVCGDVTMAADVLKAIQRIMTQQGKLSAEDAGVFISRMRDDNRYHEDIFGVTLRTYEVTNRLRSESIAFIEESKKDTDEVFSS
Kind of assay: Citrulline assay for nitric oxide synthase, hncNOS. The format is biochemical. As to conditions: averages across all experiments and all lots; 30 μM L-arginine.
Method: as §3, §4

Assay [4] concerns nitrite production in human cartilage explants. Nature of the assay: Human cartilage explant assay (IL-1 induced nitrite production). It is filed as cell-based. The settings on record: inhibition of nitrite production, IL-1 stimulated explants. As to the method: Human Cartilage Explant Assay
Bone pieces are rinsed twice with Dulbecco's Phosphate Buffered Saline (GibcoBRL) and once with Dulbecco's Modified Eagles Medium (GibcoBRL) and placed into a petri dish with phenol red free Minimum Essential Medium (MEM) (GibcoBRL). Cartilage was cut into small explants of approximately 15-45 mg in weight and one or two explants per well are placed into either 96 or 48 well culture plates with 200-500 μL of culture media per well. The culture media was either a custom modification of Minimum Essential Medium(Eagle) with Earle's salts (GibcoBRL) prepared without L-Arginine, without L-Glutamine and without phenol red or a custom modification of serumless Neuman and Tytell (GibcoBRL) medium prepared without L-arginine, without insulin, without ascorbic acid, without L-glutamine and without phenol red. Both are supplemented before use with 100 μM L-Arginine (Sigma), 2 mM L-glutamine, 1×HL-1 supplement (BioWhittaker), […] ascorbic acid (Sigma) and 150 pg/ml recombinant human IL-1[…] (RD Systems) to induce nitric oxide synthase. Compounds are then added in 10 μL aliquots and the explants incubated at 37° C. with 5% CO2 for 18-24 hours. The day old supernatant is then discarded and replaced with fresh culture media containing recombinant human IL-1 ? and compound and incubated for another 20-24 hours. […] All samples are done in quadruplicate. Unstimulated controls are cultured in media in the absence of recombinant human IL-1[…]. IC50 values (Table I) are determined from plotting the percent inhibition of nitrite production at six different concentrations of inhibitor.

The test system of assay [5] is LPS-induced increase in plasma nitrite/nitrate levels. Kind of assay: In vivo assay, endotoxin-treated rats. As to conditions: administered orally, plasma nitrite/nitrate 5 hours post-treatment. As for the experimental part: Plasma nitrite/nitrate levels can be determined 5 hours post-treatment.
For assay [6], the target named is T4, hiNOS (Homo sapiens, UniProt P35228).
T4 construct: made in house; host or cells: Sf9 insect cells, baculovirus vector
Kind of assay: Assay for time dependent inhibition, hiNOS. It is filed as biochemical. As for the experimental part:
(§1) Assay for Time Dependent Inhibition
(§2) Aliquots (10 μL) are removed at 0, 10,21 and 60 minutes and immediately added to a citrulline assay enzyme reaction mixture containing L-[2,3-^3H]-arginine and a final L-arginine concentration of 30 μM in a final volume of 100 μL. The reaction is allowed to proceed for 15 minutes at 37° C. and terminated by addition of stop buffer and chromatography with Dowex 50W X-8 cation exchange ion exchange resin as described for the citrulline NOS assay. The % inhibition of NOS activity by an inhibitor was taken as the percent inhibition in activity compared to control enzyme preincubated for the same time in the absence of inhibitor.

The target in assay [7] is T5, hecNOS (Homo sapiens, UniProt P29474).
T5 construct: made in house; host or cells: Sf9 insect cells, baculovirus vector
Nature of the assay: Assay for time dependent inhibition, hecNOS. It is filed as biochemical. As for the experimental part:
as §1, §2

Assay [8] addresses T6, hncNOS (Homo sapiens, UniProt P29475).
T6 construct: made in house; host or cells: Sf9 insect cells, baculovirus vector
Nature of the assay: Assay for time dependent inhibition, hncNOS. As to conditions: 21 min preincubation. The format is biochemical. As to the method:
as §1, §2

The mark [9] stands for this setting: Rattus norvegicus, po, read-out: ED50.

Structures can show the parent of a compound that is named as a salt. Where two headings read alike, the source gives them in different places.

T1 sequence (P35228 whole entry): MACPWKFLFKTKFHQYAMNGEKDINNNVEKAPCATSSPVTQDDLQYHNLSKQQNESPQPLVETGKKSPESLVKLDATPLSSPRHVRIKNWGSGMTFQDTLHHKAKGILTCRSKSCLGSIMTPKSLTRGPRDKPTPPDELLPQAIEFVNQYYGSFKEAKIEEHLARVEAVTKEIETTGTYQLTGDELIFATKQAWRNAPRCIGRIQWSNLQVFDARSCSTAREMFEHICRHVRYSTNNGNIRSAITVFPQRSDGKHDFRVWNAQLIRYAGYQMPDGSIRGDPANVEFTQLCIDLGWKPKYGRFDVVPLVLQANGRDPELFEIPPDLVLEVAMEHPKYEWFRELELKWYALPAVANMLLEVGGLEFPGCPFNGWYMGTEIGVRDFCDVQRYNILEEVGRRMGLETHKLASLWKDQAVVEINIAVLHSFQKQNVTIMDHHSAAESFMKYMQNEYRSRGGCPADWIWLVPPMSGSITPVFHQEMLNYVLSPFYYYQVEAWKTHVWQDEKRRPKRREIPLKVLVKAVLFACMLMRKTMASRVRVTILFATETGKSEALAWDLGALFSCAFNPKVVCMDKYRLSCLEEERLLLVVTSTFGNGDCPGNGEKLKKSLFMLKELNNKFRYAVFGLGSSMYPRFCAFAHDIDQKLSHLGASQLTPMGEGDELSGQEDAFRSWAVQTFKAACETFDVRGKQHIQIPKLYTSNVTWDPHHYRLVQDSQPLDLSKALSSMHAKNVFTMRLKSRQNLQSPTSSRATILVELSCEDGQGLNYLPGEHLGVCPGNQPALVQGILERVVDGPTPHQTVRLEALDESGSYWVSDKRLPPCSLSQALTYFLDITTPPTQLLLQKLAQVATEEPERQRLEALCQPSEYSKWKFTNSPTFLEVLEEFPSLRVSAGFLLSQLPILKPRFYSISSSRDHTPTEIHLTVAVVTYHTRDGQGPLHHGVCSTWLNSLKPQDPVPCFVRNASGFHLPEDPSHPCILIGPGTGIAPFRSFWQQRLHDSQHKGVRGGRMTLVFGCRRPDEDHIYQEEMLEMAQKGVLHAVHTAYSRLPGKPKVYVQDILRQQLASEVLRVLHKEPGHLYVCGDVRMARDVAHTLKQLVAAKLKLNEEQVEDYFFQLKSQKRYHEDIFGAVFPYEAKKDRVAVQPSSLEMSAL

Regarding `CC(=N)NC/C=C/CC(C)(N)C(=O)O` (centres unmarked) [Example CC, (E)-2-amino-2-methyl-6-[(1-iminoethyl)amino]-4-hexenoic Acid, Dihydrochloride], the IC50 in assay [1] turned out to be 2.9 µM; in assay [2] it was 29 µM; in assay [3], 9.9 µM; in assay [4] (Homo sapiens), 0.5 µM. Moreover, the ED50 in assay [5] (setting [9]) was less than 3 mg/kg.
As for `CC(=N)NC/C=C\CC[C@H](N)C(=O)O` [Example T, (2S,5Z)-2-amino-7-[(1-iminoethyl)amino]-5-heptenoic Acid, Dihydrochloride], the IC50 in assay [4] (Homo sapiens) turned out to be 0.1 µM. In other words, the sub-micromolar range.
In assay [4], `COC[C@](N)(CSCCNC(C)=N)C(=O)O` [Example J, 2-[[[2-1(1-Iminoethyl)amino]ethyl]thiolmethyl]-O-methyl-D-serine, Dihydrochloride] showed an IC50 of 8.2 µM.
Compound `CC(=N)NCC(F)=CCC[C@H](N)C(=O)O` (mixture of isomers) [Example B, (2S,5E/Z)-2-amino-6-fluoro-7-[(1-iminoethyl)amino]-5-heptenoic Acid, Dihydrochloride] had an IC50 in assay [4] (Homo sapiens) of 0.2 µM.
`N=C1CCCC[C@H](CCCC[C@@H](N)C(=O)O)N1` [Example Y, ([…]R,2S)-[…]-aminohexahydro-7-imino-1H-azepine-2-hexanoic Acid, Trihydrate Hydrochloride] yielded an IC50 in assay [4] of less than 10 µM. In addition, the inhibition at 2.8 µM in assay [6] (21 min preincubation) is 75%; in assay [6] (60 min preincubation), 76%. The inhibition at 33 µM in assay [7] (21 min preincubation) and in assay [7] (60 min preincubation) was 11% in each case. The same compound had an inhibition at 5 µM in assay [8] (5 μM) of 0%.
`CC(=N)NCC#CCC(C)(N)C(=O)O` (centres unmarked) [Example FF, 2-amino-2-methyl-6-[(1-iminoethyl)amino]-4-hexynoic Acid, Dihydrochloride]: the figures for the IC50 in assay [1], in assay [2] and in assay [3] were 16 µM, 86 µM and 45 µM, respectively.
In assay [4] (Homo sapiens), `CC(=N)NC/C(F)=C/CC[C@H](N)C(=O)O` [Example D, (2S,5Z)-2-amino-6-fluoro-7-[(1-iminoethyl)amino]-5-heptenoic Acid, Trihydrochloride, Dihydrate] displayed a concentration for half-maximal inhibition (IC50) of 2.5 µM. Moreover, the ED50 in assay [5] (setting [9]) was greater than 10 mg/kg.
Turning to `CC(=N)NC/C=C/C[C@](C)(N)C(=O)O` [Example EE, (S, E)-2-amino-2-methyl-6-[(1-iminoethyl)amino]-4-hexenoic Acid, Dihydrochloride], the IC50 was determined as 1.4 µM in assay [1], 18 µM in assay [2], 5.8 µM in assay [3] and 0.5 µM in assay [4] (Homo sapiens). Besides, the ED50 in assay [5] (setting [9]) was 0.2 mg/kg.
Turning to `CC(=N)NC/C=C/C[C@@](C)(N)C(=O)O` [Example DD, (R, E)-2-amino-2-methyl-6-[(1-iminoethyl)amino]-4-hexenoic Acid, Dihydrochloride], the IC50 in assay [1] turned out to be 10 µM; in assay [2] it was 74 µM; in assay [3] it was 31 µM; in assay [4] (Homo sapiens), 1.8 µM.
Turning to `CC(=N)NC/C=C\CC[C@@](C)(N)C(=O)O` [Example MM, (2R,5Z)-2-amino-2-methyl-7-[(1-iminoethyl)amino]-5-heptenoic Acid, Dihydrochloride], the values for the IC50 in assay [1], in assay [2] and in assay [3] were 121 µM, 1930 µM and 1480 µM, respectively.
Regarding `N=C1CCCC[C@H](CCCC[C@H](N)C(=O)O)N1` [Example Z, ([…]S,2S)-[…]-aminohexahydro-7-imino-1H-azepine-2-hexanoic Acid, Trihydrate Hydrochloride], the ED50 in assay [5] (setting [9]) is less than 5 mg/kg. Further, the values for the inhibition at 2.2 µM in assay [6] (21 min preincubation) and in assay [6] (60 min preincubation) were 86% and 85%, respectively. The results for the inhibition at 15 µM in assay [7] (21 min preincubation) and in assay [7] (60 min preincubation) were 18% and 16%, respectively. The compound further gave an inhibition at 3 µM in assay [8] (3 μM) of 0%.
Take `N=C1CCCC[C@H](CCCC[C@@H](N)C(=O)O)N1` [Example V, ([…]R,2S)-[…]-aminohexahydro-7-imino-1H-azepine-2-hexanoic Acid, Trihydrate Hydrochloride]: the IC50 in assay [4] (Homo sapiens) was less than 10 µM. The ED50 in assay [5] (setting [9]) was less than 3 mg/kg.
Regarding `CC(=N)NC/C(F)=C\CC[C@](C)(N)C(=O)O.Cl.Cl` [Example HH, (2S,5E)-2-amino-2-methyl-6-fluoro-7-[(1-iminoethyl)amino]-5-heptenoic Acid, Dihydrochloride], the IC50 in assay [1] is 0.4 µM; in assay [2], 37 µM; in assay [3] it was 7.6 µM; in assay [4] (Homo sapiens) it was 0.4 µM. Moreover, the ED50 in assay [5] (setting [9]) is 0.4 mg/kg.
Regarding `CC(=N)NC/C=C\CC[C@](C)(N)C(=O)O.Cl.Cl` [Example LL, (2S,5Z)-2-amino-2-methyl-7-[(1-iminoethyl)amino]-5-heptenoic Acid, Dihydrochloride], the IC50 in assay [1] amounted to 0.7 µM; in assay [2], 31 µM; in assay [3] it was 12 µM; in assay [4] (Homo sapiens), 0.8 µM. The ED50 in assay [5] (setting [9]) stood at 0.3 mg/kg.
As to `CC(=N)NC/C(F)=C\CC[C@H](N)C(=O)O` [Example A, (2S,5E)-2-amino-6-fluoro-7-[(1-iminoethyl)amino]-5-heptenoic Acid, Dihydrochloride, Monohydrate], the IC50 in assay [4] (Homo sapiens) was found to be 0.1 µM. Further, the ED50 in assay [5] (setting [9]) is less than 0.1 mg/kg; in assay [5] (Dihydrochloride, Monohydrate) it was less than 0.1 mg/kg.
Take `N=C1CCCC[C@@H](CCCC[C@H](N)C(=O)O)N1` [Example W, ([…]S,2R)-[…]-aminohexahydro-7-imino-1H-azepine-2-hexanoic Acid, Trihydrate Hydrochloride]: the IC50 in assay [4] (Homo sapiens) is greater than 30 µM. The ED50 in assay [5] (setting [9]) was greater than 10 mg/kg. In addition, the inhibition at 4.2 µM in assay [6] (21 min preincubation) came out at 34%; in assay [6] (60 min preincubation), 38%. The inhibition at 173 µM in assay [7] (21 min preincubation) is 9%; in assay [7] (60 min preincubation), 0%. This compound also gave an inhibition at 13 µM in assay [8] (13 μM) of 0%.
With `CC(=N)NC/C(F)=C\CC[C@@](C)(N)C(=O)O` [Example JJ, (2R,5E)-2-amino-2-methyl-6-fluoro-7-[(1-iminoethyl)amino]-5-heptenoic Acid, Dihydrochloride], the IC50 stood at 56 µM in assay [1], 352 µM in assay [2] and 584 µM in assay [3].
Taken in the same sequence, the figures for `N=C1CCCC[C@H](C/C=C/C[C@H](N)C(=O)O)N1` [Example BB, (2S,4E)-2-amino-6-[(2R)-hexahydro-7-imino-1H-azepin-2-yl]-4-hexenoic Acid] were less than 10 µM, greater than 25 µM and less than 10 µM.
With `CC(=N)NC/C(F)=C\CCC(C)(N)C(=O)O` (racemic) [Example KK, (2R/S,5E)-2-amino-2-methyl-6-fluoro-7-[(1-iminoethyl)amino]-5-heptenoic Acid, Dihydrochloride], the IC50 in assay [1] is 0.57 µM; in assay [2], 52 µM; in assay [3], 13 µM. Also, the ED50 in assay [5] (setting [9]) was 0.3 mg/kg.
In assay [4] (Homo sapiens), `N=C1CCCC[C@H](CCCC[C@H](N)C(=O)O)N1` [Example X, ([…]S,2S)-[…]-aminohexahydro-7-imino-1H-azepine-2-hexanoic Acid, Trihydrate Hydrochloride] gave an IC50 of less than 10 µM.
With `CC(=N)NC/C(F)=C\CC[C@H](N)C(=O)Nc1nnn[nH]1` [Example H, (2S,5E)-2-amino-6-fluoro-7-[(1-iminoethyl)amino]-N-(1H-tetrazol-5-yl) 5-heptenamide, Dihydrochloride], the ED50 in assay [5] (setting [9]) was less than 0.3 mg/kg.

The IC50 is the concentration that inhibits the measured activity by half. Lower therefore signals greater potency. A word on the ED50: it is the dose at which the effect has come halfway, by size or by number of responders. By inhibition is commonly meant the percentage by which the read-out fell short of the control. Read a high inhibition as strong suppression.

For the origin of these results see patent US20030109522A1, “Ophthalmologic treatment methods using selective iNOS inhibitors” (priority 2001, published 2003).
